Results on eight molecules are retold here after ChEMBL document CHEMBL1144269, “Carbonic anhydrase inhibitors. Inhibition of isozymes I, II, IV, V, and IX with anions isosteric and isoelectronic with sulfate, nitrate, and carbonate” (Bioorg Med Chem Lett, 2005).

Some targets named below: Carbonic anhydrase 9 (Homo sapiens, UniProt Q16790); Carbonic anhydrase 4 (Homo sapiens, UniProt P22748); Carbonic anhydrase 1 (Homo sapiens, UniProt P00915); Carbonic anhydrase 2 (Homo sapiens, UniProt P00918).
Test [1] concerns the target Carbonic anhydrase 5A, mitochondrial (Homo sapiens, UniProt P35218).

Sequence of Carbonic anhydrase 4 (P22748 whole entry): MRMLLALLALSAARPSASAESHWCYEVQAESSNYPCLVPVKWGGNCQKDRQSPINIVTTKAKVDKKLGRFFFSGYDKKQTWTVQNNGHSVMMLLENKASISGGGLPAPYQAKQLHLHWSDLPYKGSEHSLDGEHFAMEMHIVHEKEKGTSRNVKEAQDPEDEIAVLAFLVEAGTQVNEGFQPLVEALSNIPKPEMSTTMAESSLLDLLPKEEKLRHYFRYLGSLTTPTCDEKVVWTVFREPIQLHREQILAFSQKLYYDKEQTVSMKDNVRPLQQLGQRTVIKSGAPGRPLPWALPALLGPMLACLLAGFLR
Sequence of Carbonic anhydrase 5A, mitochondrial (P35218 whole entry): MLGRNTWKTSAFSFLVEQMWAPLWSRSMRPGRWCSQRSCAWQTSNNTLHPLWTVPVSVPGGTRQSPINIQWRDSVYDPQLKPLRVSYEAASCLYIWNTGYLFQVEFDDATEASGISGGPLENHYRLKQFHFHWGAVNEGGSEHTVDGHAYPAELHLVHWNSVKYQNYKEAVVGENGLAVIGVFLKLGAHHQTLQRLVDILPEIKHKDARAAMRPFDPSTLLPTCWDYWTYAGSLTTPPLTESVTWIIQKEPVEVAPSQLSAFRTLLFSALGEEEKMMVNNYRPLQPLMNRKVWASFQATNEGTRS
Sequence of Carbonic anhydrase 1 (P00915 whole entry): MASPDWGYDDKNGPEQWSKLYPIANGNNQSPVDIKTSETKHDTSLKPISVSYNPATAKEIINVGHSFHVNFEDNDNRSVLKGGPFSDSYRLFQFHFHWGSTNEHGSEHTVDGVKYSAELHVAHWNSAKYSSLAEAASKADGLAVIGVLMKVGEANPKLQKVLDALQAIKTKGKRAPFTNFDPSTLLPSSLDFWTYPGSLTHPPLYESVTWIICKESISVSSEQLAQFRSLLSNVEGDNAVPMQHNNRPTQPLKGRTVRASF

Regarding `O=C(O)O` [BICARBONATE], the inhibition constant Ki is 0.0086 mM on Carbonic anhydrase 9 and 95 mM in test [1].

For `O=S(=O)(O)O` [SULFURIC ACID], the Ki on Carbonic anhydrase 9 was 154 mM; in test [1], 680 mM.

Turning to `[O-][Br+2]([O-])O` [BROMATE], the Ki at Carbonic anhydrase 9 came out at 274 mM; in test [1] it was 11.3 mM; on Carbonic anhydrase 4 it was 128 mM; on Carbonic anhydrase 1, 4.79 mM; on Carbonic anhydrase 2, 12 mM.

Regarding `[O-][Cl+3]([O-])([O-])O` [PERCHLORATE], the Ki at Carbonic anhydrase 9 was 11.6 mM; in test [1], 13.6 mM; at Carbonic anhydrase 4, 767 mM; on Carbonic anhydrase 1 it was 0.69 mM.

`O=[N+]([O-])O` [NITRIC ACID]: in test [1], affinity was put at a Ki of 16 mM.

In the case of `[O-][Cl+2]([O-])O` [CHLORATE], the Ki at Carbonic anhydrase 9 amounted to 147 mM; in test [1] it was 7.12 mM; on Carbonic anhydrase 4, 64.9 mM; on Carbonic anhydrase 1 it was 0.54 mM; at Carbonic anhydrase 2, 0.85 mM.

As for `NS(=O)(=O)O` [SULFAMATE], the Ki is 0.0092 mM at Carbonic anhydrase 9 and 0.12 mM in test [1].

Take `[O-][I+3]([O-])([O-])O` [PERIODATE]: the Ki on Carbonic anhydrase 9 was 30.3 mM; in test [1], 15.7 mM; on Carbonic anhydrase 4 it was 226 mM; on Carbonic anhydrase 1, 14.6 mM; on Carbonic anhydrase 2, 75.8 mM.

The Ki is the dissociation constant of the complex between target and ligand, obtained from inhibition or displacement. A high value points to lower affinity.
